Experimental data published in US20100029706A1, “HYDROGENATED PYRIDO[4,3-b]INDOLES FOR THE TREATMENT OF OXIDATIVE STRESS” (Edison Parmaceuticals, Inc. a Delaware Corporation, priority 2008, published 2010).
Where two headings read alike, the source gives them in different places.

Columns and labels:
Type in all cases: cell-based
[1] = tested on: human dermal fibroblasts from CoQ10 deficient patients harboring a CoQ2 mutation; experiment: Rescue of fibroblasts from CoQ10 deficient patients from oxidative stress (similar to Example A); conditions: BSO-stressed, read-out: EC50, protection against CoQ10
Description: [Worded in the source for another cell line; this cell line is reported under the same test.] (§1) An initial screen was performed to identify compounds effective for the amelioration of redox disorders. Test samples, 4 reference compounds (Idebenone, decylubiquinone, Trolox and α-tocopherol acetate), and solvent controls were tested for their ability to rescue FRDA fibroblasts stressed by addition of L-buthionine-(S,R)-sulfoximine (BSO), as described in Jauslin et al., Hum. Mol. Genet. 11(24):3055 (2002), Jauslin et al., FASEB J. 17:1972-4 (2003), and International Patent Application WO 2004/003565. […] This specific BSO-mediated cell death can be prevented by administration of antioxidants or molecules involved in the antioxidant pathway, such as α-tocopherol, selenium, or small molecule glutathione peroxidase mimetics. However, antioxidants differ in their potency, i.e. the concentration at which they are able to rescue BSO-stressed FRDA fibroblasts.
Test samples were screened according to the following protocol: • A culture with FRDA fibroblasts was started from a 1 ml vial with approximately 500,000 cells stored in liquid nitrogen. Cells were propagated in 10 cm cell culture dishes by splitting every third day in a ratio of 1:3 until nine plates were available. Once confluent, fibroblasts were harvested. For 54 micro titer plates (96 well-MTP) a total of 14.3 million cells (passage eight) were re-suspended in 480 ml medium, corresponding to 100 μl medium with 3,000 cells/well. The remaining cells were distributed in 10 cm cell culture plates (500,000 cells/plate) for propagation. The plates were incubated overnight at 37° C. in an atmosphere with 95% humidity and 5% CO2 to allow attachment of the cells to the culture plate.
MTP medium (243 μl) was added to a well of the microtiter plate. […]
(§2) 100 μl of PBS containing 1.2 μM Calcein AM were then added to each well. […] After that time the PBS was discarded, the plate gently tapped on a paper towel and fluorescence (excitation/emission wavelengths of 485 nm and 525 nm, respectively) was read on a Gemini fluorescence reader. […]

[2] = tested on: human dermal fibroblasts from LHON patients; experiment: Rescue of fibroblasts from LHON patients from oxidative stress (as Example A); conditions: Fibroblast, LHON fibroblasts GM03858, BSO-stressed, read-out: EC50, protection against LHON
Description: [Worded in the source for another cell line; this cell line is reported under the same test.] as §1
(§3) Test samples were screened according to the following protocol: • A culture with FRDA fibroblasts was started from a 1 ml vial with approximately 500,000 cells stored in liquid nitrogen. […]
as §2

[3] = tested on: human dermal fibroblasts from Parkinson's Disease patients; experiment: Rescue of fibroblasts from Parkinson's Disease patients from oxidative stress (similar to Example A); conditions: PD fibroblasts AG20439, BSO-stressed, read-out: EC50, protection against Parkinson's
Description: [Worded in the source for another cell line; this cell line is reported under the same test.] as §1, §3, §2

[4] = tested on: Human dermal fibroblasts from Friedreich's Ataxia patients; experiment: Rescue of BSO-stressed FRDA fibroblasts (Calcein AM viability); conditions: FRDA fibroblasts GM04078, BSO-stressed, read-out: EC50, protection against Friedreich's ataxia
Description: as §1
MEM (a medium enriched in amino acids and vitamins, catalog no. 1-31F24-I) and Medium 199 (M199, catalog no. 1-21F22-I) with Earle's Balanced Salts, without phenol red, were purchased from Bioconcept. Fetal Calf Serum was obtained from PAA Laboratories. Basic fibroblast growth factor and epidermal growth factor were purchased from PeproTech. Penicillin-streptomycin-glutamine mix, L-buthionine (S,R)-sulfoximine, (+)-α-tocopherol acetate, decylubiquinone, and insulin from bovine pancreas were purchased from Sigma. Trolox (6-hydroxy-2,5,7,8-tetramethylchromane-2-carboxylic acid) was obtained from Fluka. Idebenone was obtained from Chemo Iberica. Calcein AM was purchased from Molecular Probes. Cell culture medium was made by combining 125 ml M199 EBS, 50 ml Fetal Calf Serum, 100 U/ml penicillin, 100 μg/ml streptomycin, 2 mM glutamine, 10 μg/ml insulin, 10 ng/ml EGF, and 10 ng/ml bFGF; MEM EBS was added to make the volume up to 500 ml. A 10 mM BSO solution was prepared by dissolving 444 mg BSO in 200 ml of medium with subsequent filter-sterilization. During the course of the experiments, this solution was stored at +4° C. […]

Structure (SMILES) | EC50 ([1]; Homo sapiens, Fibroblast) | EC50 [2] | EC50 ([3]; Homo sapiens, Fibroblast) | EC50 ([4]; Homo sapiens) | EC50 [1] | EC50 [3] | EC50 [4]
CN1CCc2c(c3ccccc3n2Cc2ccccc2)C1 [5-benzyl-2-methyl-2,3,4,5-tetrahydro-1H-pyrido[4,3-b]indole] | 3.35 µM | 1.2 µM | 0.93 µM | 4.26 µM | – | – | –
Cc1ccc2c(c1)C1CNCCC1N2 (stereo not drawn) [8-methyl-1,3,4,4a,5,9b-tetrahydro-1H-pyrido[4,3-b]indole] | – | – | – | – | 7 µM | 3.68 µM | 4.1 µM
Cc1ccc2c(c1)c1c(n2CCc2ccc(C)nc2)CCN(C)C1 [dimebolin, 2,8-dimethyl-5-(2-(6-methylpyridin-3-yl)ethyl)-2,3,4,5-tetrahydro-1H-pyrido[4,3-b]indole] | 0.23 µM | – | – | 1.9 µM | – | – | –
